Columns and labels:
[1] = system: imiquimod-induced psoriasis; experiment: IMQ induced psoriasis mouse model; assay type: in vivo
Procedure: Except for the control group, all other groups received a daily topical dose of 60 mg of 5% commercially available IMQ cream on the shaved back for 7 consecutive days. The same amount of Vaseline was applied to the same areas of the animals in the negative control group.
Vehicle and DF-6129 were dosed daily (po) for 8 days, from Day −1 to Day 7. Dosing time: 1 hour prior to IMQ application.
The Psoriasis Area and Severity Index (PASI) scoring system was used to evaluate the severity of skin inflammation of the mouse model. Erythema, scaling, and skin thickness was scored independently from 0-4 as (daily scoring) as below:
Animals were euthanized 4 h post last dosing on day 7 (3 h after applying with imiquimod cream). Whole Blood was collected via cardiac puncture from all group animals. Serum samples were separated by centrifugation at 4° C. at 8000 g for 5 minutes, total 70 samples. All serum samples were stored at −80° C. for IL-17 analysis.
Animals were euthanized 4 h post last dosing on day 7 (3 h after applying with imiquimod cream) and back skin was be collected. The skin tissues were divided into two parts. One half was flash frozen and stored at −80° C. for PCR analysis (IL-17A, IL-17F, IL-22 and IL-23), the other half was fixed in 10% formalin for HE staining and scoring.
All statistical analysis were conducted, and the level of significance was set at P<0.05. The group means and standard deviation were calculated for all measurement parameters as study designed. One-way ANOVA comparisons among the groups was performed with software SPSS 16.0.

[2] = system: IL-17A, IL-17F and IL-21 T-cell dependent cytokine secretion; experiment: Th17 Panel in Human PBMCs (anti-CD3 stimulation, Luminex); assay type: cell-based; details: anti-CD3 coated plates, 48 hours post stimulation, supernatant, FIG. 1
Procedure: High binding plates were coated with anti-CD3 (Clone UCHT-1, 0.2 ug/well) or its isotype control mIgG1 (0.2 ug/well) and incubated overnight at 4° C. Cryopreserved human PBMCs were seeded into U-bottom 96-well plates (2.4×10^5 cells/well) with 228 ul per well of culture medium (RPMI 1640, 10% HI-FBS, 1% P/S, 2 mM L-glutamine). Cells were incubated at 37° C., 5% CO2 for 1 hour prior to the addition of test compounds. Test compounds were solubilized in DMSO and further diluted to 20× with cell culture medium. Test compounds were added to the PBMCs in volumes of 12 ul in triplicate and incubated at 1 hour at 37° C., 5% CO2.
After the 1 hour incubation, 200 ul of cells ([…]) treated with test compounds or controls were transferred to the prepared anti-CD3 coated plates and incubated at 48 hours at 37° C., 5% CO2. Consequently, the final concentrations of assay controls were 1 ug/mL anti-CD3 (agonist) or 1 ug/mL mIgG1 isotype control, and 0.1% DMSO (vehicle control). At the end of the incubation period, plates were centrifuged at 200×g for 10 minutes. Cell culture supernatants were collected and stored at −80° C. until needed for analysis. Cytokine levels in each sample were determine using Luminex methodology per the manufacturer's protocol using the Human Th17 Magnetic Bead Panel from Milipore Sigma (HTH17MAG-14K).
Human PBMCs were treated with compound I-1 (Example 1) or vehicle control and then subjected to T cell activation mediated by anti-CD3 coated plates. 48 hours-post stimulation, IL-17A, IL-17F and IL-21 supernatant levels were quantified.

[3] = system: MCP-1 secretion from LPS-stimulated human PBMCs; experiment: PBMC MCP-1 HTRF Assay; assay type: cell-based; details: FIG. 2
Procedure: The cryopreserved PBMC cells were thawed in a 37° C. water bath immediately after taking out from liquid nitrogen storage. A sterile pipette was used to transfer the content to sterile […] centrifuge tube containing […] of complete growth medium (Gibico 1640) and centrifuge at 300×g for 10 min. Supernatant was discarded, and cell pellet was resuspended in 10 mL of complete growth media in a sterile 15 mL tube. The cells were rested for 1 h at 37° C. (1×10^6 cells/mL). The cells were spinned down at 300×g for 10 minutes after 1 h. Supernatant was discard, and cell pellet was resuspended in complete growth medium, the cells number and viability were measured by AO/PI staining. In a 384-well white plate, PBMCs at 25k cells/well (15 μl per well) were seeded with Gibico 1640 medium. The compound stock was serial diluted into 10 mM concentrations by 3-fold dilution. […]
For MCP-1 HTRF, 2.5 μl/well MCP-1 donor antibody and […] MCP-1 acceptor antibody were added into 384 well plate, following by centrifuging at 190×g for 1 min and incubating at room temperature for 2 h. The plate was read on the Envision.
The cryopreserved PBMC cells were thawed in a 37° C. water bath immediately after taking out from liquid nitrogen storage. […] Supernatant was discard, and cell pellet was resuspended in complete growth medium, the cells number and viability were measured by AO/PI staining. […]

[4] = system: cGVHD; experiment: cGVHD models (LP/J→C57BL/6 sclerodermatous; C57BL/6→B10.BR); assay type: in vivo, mouse; details: e.g. 3 mg/kg
Procedure: Compound I-2 is dosed at various doses, e.g., 3 mg/kg, and decreases incidence and/or […] onset of Graft vs. Host Disease (GvHD) in the LP/J-C57BL/6 model of sclerodermatous cGVHD and/or the C57BL/6→B10.BR cGVHD model that develops multiorgan system disease including bronchiolar obliterans (BO).

[5] = system: Graft vs. Host Disease (GvHD); experiment: GvHD in irradiated female BALB/c mice engrafted with WBCs from female C57BL/6 mice; assay type: in vivo, mouse
[6] = system: Graft vs. Host Disease (GvHD); experiment: GvHD, combination with adoptive transfer of expanded Tregs; assay type: in vivo, mouse; details: in combination with adoptive transfer of expanded Tregs; e.g. 3 mg/kg
Text: It has been shown that BET inhibitors can be combined with Treg expansion therapy for treatment of diseases involving inflammatory response. Lethally irradiated (8.5 Gy) BALB/c mice received 5.5×10^6 TCD B6-CD45.1 BM cells and spleen cells from expanded (TrED) or unexpanded (TrUD) B6-FoxP3RFP donor mice adjusted to contain either […] or 1×10^6 total T cells (Copsel et al. 2019).

[7] = system: Graft vs. Host Disease (GvHD); experiment: GvHD, combination with CTLA4-Ig/Abatacept; assay type: in vivo, mouse; details: in combination with CTLA4-Ig; e.g. 3 mg/kg
Text: It has been shown that in vivo infusion of recombinant, soluble CTLA4 fused with Ig heavy chains, as a surrogate ligand used to block CD28/CTLA4 T-cell costimulation, could prevent efficient T-cell activation and thereby reduce graft-versus-host disease (GVHD). Lethally irradiated B10.BR recipients of major histocompatibility complex disparate C57BL/6 donor grafts received intraperitoneal injections CTLA4-Ig in various doses and schedules beginning on day −1 or day 0 of bone marrow transplantation (BMT) (see Blazer et al. 1994).

[8] = system: GVHD; details: allogeneic animals compared with allogeneic control recipients; FIG. 3; cited from earlier work
[9] = system: acute GVHD; details: oral gavage three times weekly, versus vehicle; FIG. 4; cited from earlier work

In the case of `Cn1ccn(-c2ccc(-c3cc(F)cc(-c4cccc(N5CCN(C(C)(C)C)CC5)c4)c3O)cc2Cl)c1=O` [Compound I-1, 1-(3″-(4-(tert-butyl)piperazin-1-yl)-3-chloro-5′-fluoro-2′-hydroxy-[1,1′:3′,1″- terphenyl]-4-yl)-3-methyl-1,3-dihydro-2H-imidazol-2-one], the “mRNA levels of IL-17A from the back skin” value ([1]; 10 mg/kg, compared with vehicle treatment alone, FIG. 7A) is reported as “significantly reduced”, the “mRNA levels of IL-22 from the back skin” value ([1]; 10 mg/kg, compared with vehicle treatment alone, FIG. 7B) is reported as “significantly reduced” and the “mRNA levels of IL-23 from the back skin” value ([1]; 10 mg/kg, compared with vehicle treatment alone, FIG. 7C) is reported as “significantly reduced”. For the same molecule, the “serum IL-17 levels” value ([1]; compared to vehicle treatment alone, ELISA, day 7, FIG. 6) was “significantly reduced”, the “total psoriasis (PASI) score” value ([1]; daily dosing po, compared to vehicle treatment, FIG. 5A) was “significantly reduced” and the “erythema (PASI)” value ([1]; daily dosing po, compared to vehicle treatment, FIG. 5B) was “significant decreases”. For the same molecule, the “scaling (PASI)” value ([1]; daily dosing po, compared to vehicle treatment, FIG. 5C) was “significant decreases”, the “skin thickening (PASI)” value ([1]; daily dosing po, compared to vehicle treatment, FIG. 5D) was “significant decreases” and the “IL21 T-cell dependent cytokine secretion” value [2] was “inhibited”. The “IL-17A T-cell dependent cytokine secretion” value [2] was “inhibited”, the “IL-17F T-cell dependent cytokine secretion” value [2] was “inhibited” and the “MCP secretion from LPS-stimulated human PBMCs” value [3] was “inhibited”.

With `Cc1cc(-c2ccc(-n3ccn(C)c3=O)c(Cl)c2)c(O)c(-c2cccc(N3CCN(C(C)(C)C)CC3)c2)n1` [Compound I-2, 1-(4-(2-(3-(4-(tert-butyl)piperazin-1-yl)phenyl)-3-hydroxy-6-methylpyridin-4-yl)-2-chlorophenyl)-3-methyl-1,3-dihydro-2H-imidazol-2-one] the “incidence and/or onset of GvHD (cGVHD)” value ([4]; in combination with Ruxolitinib) was “decreases incidence and/or delays onset”, the “incidence and/or onset of GvHD (cGVHD)” value ([4]; monotherapy) was “decreases incidence and/or delayes onset” and the “incidence and/or onset of GvHD” value ([5]; in combination with Ruxolitinib, compared to Ruxolitinib treatment alone, e.g. 3 mg/kg) was “decreases incidence and/or delays of onset”. The “incidence and/or onset of GvHD” value ([5]; monotherapy, various doses e.g. 3 mg/kg) was “decreases incidence and/or delays onset”, the “incidence and/or onset of GvHD” value [6] was “decreases incidence and/or delays of onset” and the “incidence and/or onset of GvHD” value [7] was “decreases incidence and/or delays onset”.

In the case of `COc1cc2c(cc1-c1c(C)noc1C)ncc1[nH]c(=O)n([C@H](C)c3ccccn3)c12` [I-BET151], the “GVHD severity (clinical score)” value [8] is given as “significantly reduced” and the survival rates [8] is given as “improved”.

For `Cc1noc(C)c1-c1cnc2c(-c3ccc(C(=O)O)cc3)cn([C@@H](C)c3ccccn3)c2c1` [PLX51107], the survival [9] is given as “significantly improved”.
